≈ marks a conversion by molar mass, not a printed value. Each block holds one compound with its values, some of them ahead of it.
Assays:
[1] = target: Ubiquitin carboxyl-terminal hydrolase 9X (Homo sapiens, UniProt Q93008); assay: Inhibition of USP9x (unknown origin)
[2] = Aqueous solubility of compound; assay type: physicochemical
[3] = target: T1, Ubiquitin carboxyl-terminal hydrolase 14 (Homo sapiens, UniProt P54578); assay: Inhibition of human USP14 using Ub-PA as substrate assessed as deubiquitination level incubated for 1 hr by SDS-PAGE assay
T1 sequence (P54578 whole entry): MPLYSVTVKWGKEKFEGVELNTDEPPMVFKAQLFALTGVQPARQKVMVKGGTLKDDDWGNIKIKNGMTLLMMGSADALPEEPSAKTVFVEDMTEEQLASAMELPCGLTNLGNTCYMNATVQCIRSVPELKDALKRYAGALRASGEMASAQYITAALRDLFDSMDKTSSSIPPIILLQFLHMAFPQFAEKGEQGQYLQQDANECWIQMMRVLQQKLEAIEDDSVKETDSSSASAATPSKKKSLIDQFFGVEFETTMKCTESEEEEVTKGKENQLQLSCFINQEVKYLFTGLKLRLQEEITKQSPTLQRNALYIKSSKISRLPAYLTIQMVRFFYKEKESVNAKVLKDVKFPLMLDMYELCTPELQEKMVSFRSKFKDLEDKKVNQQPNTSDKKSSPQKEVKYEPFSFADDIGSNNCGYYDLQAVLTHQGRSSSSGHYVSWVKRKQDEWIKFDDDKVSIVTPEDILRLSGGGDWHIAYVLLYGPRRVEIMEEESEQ

[4] = target: T2, Ubiquitin carboxyl-terminal hydrolase 5 (Homo sapiens, UniProt P45974); assay: Inhibition of human USP5 using Ub-PA as substrate assessed as deubiquitination level incubated for 1 hr by SDS-PAGE assay
T2 sequence (P45974 whole entry): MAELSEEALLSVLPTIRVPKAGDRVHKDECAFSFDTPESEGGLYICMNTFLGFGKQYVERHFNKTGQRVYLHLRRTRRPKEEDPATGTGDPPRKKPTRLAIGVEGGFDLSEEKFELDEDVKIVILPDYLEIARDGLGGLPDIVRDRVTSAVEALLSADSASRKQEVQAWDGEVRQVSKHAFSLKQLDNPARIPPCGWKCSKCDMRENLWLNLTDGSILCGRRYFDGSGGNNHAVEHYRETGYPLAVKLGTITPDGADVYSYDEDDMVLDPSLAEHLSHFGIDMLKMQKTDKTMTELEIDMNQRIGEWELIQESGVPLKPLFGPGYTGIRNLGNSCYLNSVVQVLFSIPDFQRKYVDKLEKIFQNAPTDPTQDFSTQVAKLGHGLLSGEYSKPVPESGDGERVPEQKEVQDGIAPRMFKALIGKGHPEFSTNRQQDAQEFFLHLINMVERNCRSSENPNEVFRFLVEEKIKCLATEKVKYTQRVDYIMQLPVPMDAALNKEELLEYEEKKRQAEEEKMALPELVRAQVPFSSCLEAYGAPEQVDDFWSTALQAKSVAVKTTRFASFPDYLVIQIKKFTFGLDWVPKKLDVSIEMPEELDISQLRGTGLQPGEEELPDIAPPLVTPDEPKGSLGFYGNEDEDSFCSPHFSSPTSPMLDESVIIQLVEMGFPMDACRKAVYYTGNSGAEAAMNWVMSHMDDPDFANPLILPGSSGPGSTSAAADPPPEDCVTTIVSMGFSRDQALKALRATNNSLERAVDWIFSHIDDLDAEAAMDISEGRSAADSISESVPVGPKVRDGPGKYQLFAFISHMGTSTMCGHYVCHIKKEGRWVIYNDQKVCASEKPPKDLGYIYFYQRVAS

[5] = target: T3, Ubiquitin carboxyl-terminal hydrolase 8 (Homo sapiens, UniProt P40818); assay: Inhibition of human USP8 using Di-Ub IQF as substrate incubated for 15 mins by K63-2 assay
T3 sequence (P40818 whole entry): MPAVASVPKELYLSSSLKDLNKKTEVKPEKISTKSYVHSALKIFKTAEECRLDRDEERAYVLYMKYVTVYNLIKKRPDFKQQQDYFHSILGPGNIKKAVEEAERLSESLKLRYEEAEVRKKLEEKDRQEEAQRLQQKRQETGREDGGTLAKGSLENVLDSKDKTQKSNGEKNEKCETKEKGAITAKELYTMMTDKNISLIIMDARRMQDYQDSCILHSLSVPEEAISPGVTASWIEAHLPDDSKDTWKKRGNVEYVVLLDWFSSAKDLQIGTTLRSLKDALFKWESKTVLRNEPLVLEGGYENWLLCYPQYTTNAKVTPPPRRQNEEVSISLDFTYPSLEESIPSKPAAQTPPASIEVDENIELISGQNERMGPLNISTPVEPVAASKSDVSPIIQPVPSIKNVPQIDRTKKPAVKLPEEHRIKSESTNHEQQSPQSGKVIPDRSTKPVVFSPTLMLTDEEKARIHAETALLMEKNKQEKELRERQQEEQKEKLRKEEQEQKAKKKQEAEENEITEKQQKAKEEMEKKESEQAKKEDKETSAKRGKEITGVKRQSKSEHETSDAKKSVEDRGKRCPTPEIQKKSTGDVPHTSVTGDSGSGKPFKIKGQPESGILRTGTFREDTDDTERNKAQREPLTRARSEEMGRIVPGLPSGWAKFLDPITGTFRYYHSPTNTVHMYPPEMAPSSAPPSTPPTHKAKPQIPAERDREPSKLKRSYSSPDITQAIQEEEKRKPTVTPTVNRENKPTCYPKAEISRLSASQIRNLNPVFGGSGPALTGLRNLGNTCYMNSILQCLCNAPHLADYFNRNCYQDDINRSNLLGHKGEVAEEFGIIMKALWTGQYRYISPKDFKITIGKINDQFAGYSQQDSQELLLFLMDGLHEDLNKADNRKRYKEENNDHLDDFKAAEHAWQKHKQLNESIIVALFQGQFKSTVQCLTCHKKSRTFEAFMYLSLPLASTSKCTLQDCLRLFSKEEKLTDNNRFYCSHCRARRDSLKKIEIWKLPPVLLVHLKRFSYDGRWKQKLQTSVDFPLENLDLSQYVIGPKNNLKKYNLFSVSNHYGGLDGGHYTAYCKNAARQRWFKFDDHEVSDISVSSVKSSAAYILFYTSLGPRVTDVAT

[6] = target: T4, Ubiquitin carboxyl-terminal hydrolase 2 (Homo sapiens, UniProt O75604); assay: Inhibition of human USP2 using Di-Ub IQF as substrate incubated for 15 mins by K63-2 assay
T4 sequence (O75604 whole entry): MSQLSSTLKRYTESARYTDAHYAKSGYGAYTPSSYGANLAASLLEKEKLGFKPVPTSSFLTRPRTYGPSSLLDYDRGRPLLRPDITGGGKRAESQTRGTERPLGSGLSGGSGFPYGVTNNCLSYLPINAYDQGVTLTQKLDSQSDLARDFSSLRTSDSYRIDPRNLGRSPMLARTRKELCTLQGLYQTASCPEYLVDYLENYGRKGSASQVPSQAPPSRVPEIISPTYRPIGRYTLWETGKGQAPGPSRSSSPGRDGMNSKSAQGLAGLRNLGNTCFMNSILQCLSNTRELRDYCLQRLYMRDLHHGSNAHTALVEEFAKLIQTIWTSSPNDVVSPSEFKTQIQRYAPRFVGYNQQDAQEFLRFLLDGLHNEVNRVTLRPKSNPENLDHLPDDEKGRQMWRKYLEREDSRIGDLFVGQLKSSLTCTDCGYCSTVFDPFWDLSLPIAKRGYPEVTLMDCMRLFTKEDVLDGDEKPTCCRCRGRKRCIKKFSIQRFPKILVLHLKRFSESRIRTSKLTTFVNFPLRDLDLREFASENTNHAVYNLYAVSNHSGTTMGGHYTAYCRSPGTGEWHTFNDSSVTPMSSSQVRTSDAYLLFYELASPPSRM

HCT-116 [7] = assay: Anticancer activity against human HCT-116 cells assessed as cell growth inhibition incubated for 72 hrs by CellTiter Glo assay; assay type: functional, cell-based; conditions: HCT-116, 72 h
MM1.S = assay: Anticancer activity against human MM1.S cells assessed as cell growth inhibition incubated for 120 hrs by CellTiter-Glo assay; assay type: functional, cell-based
[8] = target: T5, Ubiquitin carboxyl-terminal hydrolase 7 (Homo sapiens, UniProt Q93009); assay: Inhibition of human his tagged USP7 (208 to 560 residues) catalytic domain expressed in insect sf9 cells using monoubiquitinated ubiquitin-rhodamine as substrate incubated for 1 hrs by fluorescence based assay
Target sequence in this assay (Q93009 whole entry, the tested form may be a part): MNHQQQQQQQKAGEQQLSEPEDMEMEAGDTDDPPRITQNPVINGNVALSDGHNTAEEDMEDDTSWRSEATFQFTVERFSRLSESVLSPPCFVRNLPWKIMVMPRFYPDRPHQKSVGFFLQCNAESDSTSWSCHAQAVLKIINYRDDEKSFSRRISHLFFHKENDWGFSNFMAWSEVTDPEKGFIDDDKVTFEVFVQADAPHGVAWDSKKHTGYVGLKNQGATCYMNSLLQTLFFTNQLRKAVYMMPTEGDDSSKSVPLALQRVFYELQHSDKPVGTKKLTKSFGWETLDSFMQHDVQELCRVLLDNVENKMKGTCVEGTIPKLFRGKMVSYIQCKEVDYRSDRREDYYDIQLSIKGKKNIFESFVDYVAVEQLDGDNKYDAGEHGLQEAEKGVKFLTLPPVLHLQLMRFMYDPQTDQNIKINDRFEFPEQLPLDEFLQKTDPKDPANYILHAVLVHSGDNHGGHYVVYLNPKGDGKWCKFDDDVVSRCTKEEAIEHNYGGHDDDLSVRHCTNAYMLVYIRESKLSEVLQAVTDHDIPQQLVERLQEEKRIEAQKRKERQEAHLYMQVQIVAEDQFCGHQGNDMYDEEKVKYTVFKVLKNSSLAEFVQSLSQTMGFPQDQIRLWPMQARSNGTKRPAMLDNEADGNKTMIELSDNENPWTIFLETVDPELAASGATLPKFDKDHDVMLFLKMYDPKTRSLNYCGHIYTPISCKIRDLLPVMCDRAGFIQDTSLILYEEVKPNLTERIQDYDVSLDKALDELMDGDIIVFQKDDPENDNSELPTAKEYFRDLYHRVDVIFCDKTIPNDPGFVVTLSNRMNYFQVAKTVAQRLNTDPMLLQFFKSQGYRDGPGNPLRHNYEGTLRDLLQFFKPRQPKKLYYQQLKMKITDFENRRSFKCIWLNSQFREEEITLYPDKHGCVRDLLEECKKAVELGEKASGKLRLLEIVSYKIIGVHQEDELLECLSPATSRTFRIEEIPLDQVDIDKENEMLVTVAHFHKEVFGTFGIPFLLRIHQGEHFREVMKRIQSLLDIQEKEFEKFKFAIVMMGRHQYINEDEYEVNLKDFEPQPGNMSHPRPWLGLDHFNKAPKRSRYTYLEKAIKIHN

[9] = target: Ubiquitin carboxyl-terminal hydrolase 24 (Homo sapiens, UniProt Q9UPU5); assay: Inhibition of USP24 (unknown origin)
[10] = target: T5, Ubiquitin carboxyl-terminal hydrolase 7; assay: Inhibition of human USP7 using Ub-Rho110 as substrate by fluorescence based SPR analysis
Target sequence in this assay (Q93009 whole entry, the tested form may be a part): as above

HCT-116 [11] = assay: Anticancer activity against human HCT-116 cells assessed as cell growth inhibition; assay type: functional, cell-based
[12] = target: T5, Ubiquitin carboxyl-terminal hydrolase 7; assay: Inhibition of human his tagged USP7 (208 to 560 residues) expressed in insect sf9 cells using monoubiquitinated ubiquitin-rhodamine as substrate assessed as dissociation constant incubated for 1 hrs by fluorescence based assay
Target sequence in this assay (Q93009 whole entry, the tested form may be a part): as above

[13] = target: T5, Ubiquitin carboxyl-terminal hydrolase 7; assay: Inhibition of human USP7 by SPR analysis
Target sequence in this assay (Q93009 whole entry, the tested form may be a part): as above

[14] = target: T5, Ubiquitin carboxyl-terminal hydrolase 7; assay: Inhibition of human his tagged USP7 (208 to 560 residues) expressed in insect sf9 cells using monoubiquitinated ubiquitin-rhodamine as substrate assessed as ratio of Kinact/Ki incubated for 1 hrs by fluorescence based assay
Target sequence in this assay (Q93009 whole entry, looked up, the tested form may be a part): as the sequence (Q93009 whole entry, the tested form may be a part) above

[15] = target: T1, Ubiquitin carboxyl-terminal hydrolase 14; assay: Inhibition of human his tagged USP14 by SPR analysis
[16] = target: T6, Ubiquitin carboxyl-terminal hydrolase isozyme L5 (Homo sapiens, UniProt Q9Y5K5); assay: Inhibition of human his tagged UCHL5 assessed as dissociation constant by SPR analysis
T6 sequence (Q9Y5K5 whole entry): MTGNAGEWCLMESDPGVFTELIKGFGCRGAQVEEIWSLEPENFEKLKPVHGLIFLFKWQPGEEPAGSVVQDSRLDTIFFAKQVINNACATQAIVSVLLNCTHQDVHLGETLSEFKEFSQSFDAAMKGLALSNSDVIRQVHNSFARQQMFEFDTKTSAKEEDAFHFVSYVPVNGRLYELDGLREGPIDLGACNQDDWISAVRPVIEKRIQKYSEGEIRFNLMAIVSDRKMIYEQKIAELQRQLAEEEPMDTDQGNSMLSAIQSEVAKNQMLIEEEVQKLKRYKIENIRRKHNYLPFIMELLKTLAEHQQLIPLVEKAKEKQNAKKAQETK

[17] = target: T1, Ubiquitin carboxyl-terminal hydrolase 14; assay: Inhibition of human his tagged USP14 assessed as dissociation constant by SPR analysis
[18] = target: Ubiquitin carboxyl-terminal hydrolase 20 (Homo sapiens, UniProt Q9Y2K6); assay: Inhibition of human his tagged USP20 by Westernblot analysis
[19] = target: T4, Ubiquitin carboxyl-terminal hydrolase 2; assay: Inhibition of human his tagged USP2 by Westernblot analysis
[20] = target: T2, Ubiquitin carboxyl-terminal hydrolase 5; assay: Inhibition of human his tagged USP5 by Westernblot analysis
[21] = target: T7, Ubiquitin carboxyl-terminal hydrolase isozyme L1 (Homo sapiens, UniProt P09936); assay: Inhibition of human his tagged UCH-L1 by Westernblot analysis
T7 sequence (P09936 whole entry): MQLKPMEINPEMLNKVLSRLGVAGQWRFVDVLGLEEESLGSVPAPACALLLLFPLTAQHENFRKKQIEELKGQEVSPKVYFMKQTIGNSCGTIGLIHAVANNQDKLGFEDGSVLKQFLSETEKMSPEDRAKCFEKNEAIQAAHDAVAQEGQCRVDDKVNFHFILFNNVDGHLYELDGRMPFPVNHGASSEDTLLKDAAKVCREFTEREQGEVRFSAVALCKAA

[22] = target: T3, Ubiquitin carboxyl-terminal hydrolase 8; assay: Inhibition of human his tagged USP8 by Westernblot analysis
[23] = target: T8, Ubiquitin carboxyl-terminal hydrolase isozyme L3 (Homo sapiens, UniProt P15374); assay: Inhibition of human his tagged UCH-L3 by Westernblot analysis
T8 sequence (P15374 whole entry): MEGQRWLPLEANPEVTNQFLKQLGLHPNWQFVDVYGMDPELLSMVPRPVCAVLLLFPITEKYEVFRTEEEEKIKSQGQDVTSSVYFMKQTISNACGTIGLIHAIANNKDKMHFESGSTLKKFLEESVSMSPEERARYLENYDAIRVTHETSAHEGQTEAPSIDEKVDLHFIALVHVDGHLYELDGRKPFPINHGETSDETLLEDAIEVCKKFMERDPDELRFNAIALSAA

Chain of Ubiquitin carboxyl-terminal hydrolase 9X (Q93008 whole entry): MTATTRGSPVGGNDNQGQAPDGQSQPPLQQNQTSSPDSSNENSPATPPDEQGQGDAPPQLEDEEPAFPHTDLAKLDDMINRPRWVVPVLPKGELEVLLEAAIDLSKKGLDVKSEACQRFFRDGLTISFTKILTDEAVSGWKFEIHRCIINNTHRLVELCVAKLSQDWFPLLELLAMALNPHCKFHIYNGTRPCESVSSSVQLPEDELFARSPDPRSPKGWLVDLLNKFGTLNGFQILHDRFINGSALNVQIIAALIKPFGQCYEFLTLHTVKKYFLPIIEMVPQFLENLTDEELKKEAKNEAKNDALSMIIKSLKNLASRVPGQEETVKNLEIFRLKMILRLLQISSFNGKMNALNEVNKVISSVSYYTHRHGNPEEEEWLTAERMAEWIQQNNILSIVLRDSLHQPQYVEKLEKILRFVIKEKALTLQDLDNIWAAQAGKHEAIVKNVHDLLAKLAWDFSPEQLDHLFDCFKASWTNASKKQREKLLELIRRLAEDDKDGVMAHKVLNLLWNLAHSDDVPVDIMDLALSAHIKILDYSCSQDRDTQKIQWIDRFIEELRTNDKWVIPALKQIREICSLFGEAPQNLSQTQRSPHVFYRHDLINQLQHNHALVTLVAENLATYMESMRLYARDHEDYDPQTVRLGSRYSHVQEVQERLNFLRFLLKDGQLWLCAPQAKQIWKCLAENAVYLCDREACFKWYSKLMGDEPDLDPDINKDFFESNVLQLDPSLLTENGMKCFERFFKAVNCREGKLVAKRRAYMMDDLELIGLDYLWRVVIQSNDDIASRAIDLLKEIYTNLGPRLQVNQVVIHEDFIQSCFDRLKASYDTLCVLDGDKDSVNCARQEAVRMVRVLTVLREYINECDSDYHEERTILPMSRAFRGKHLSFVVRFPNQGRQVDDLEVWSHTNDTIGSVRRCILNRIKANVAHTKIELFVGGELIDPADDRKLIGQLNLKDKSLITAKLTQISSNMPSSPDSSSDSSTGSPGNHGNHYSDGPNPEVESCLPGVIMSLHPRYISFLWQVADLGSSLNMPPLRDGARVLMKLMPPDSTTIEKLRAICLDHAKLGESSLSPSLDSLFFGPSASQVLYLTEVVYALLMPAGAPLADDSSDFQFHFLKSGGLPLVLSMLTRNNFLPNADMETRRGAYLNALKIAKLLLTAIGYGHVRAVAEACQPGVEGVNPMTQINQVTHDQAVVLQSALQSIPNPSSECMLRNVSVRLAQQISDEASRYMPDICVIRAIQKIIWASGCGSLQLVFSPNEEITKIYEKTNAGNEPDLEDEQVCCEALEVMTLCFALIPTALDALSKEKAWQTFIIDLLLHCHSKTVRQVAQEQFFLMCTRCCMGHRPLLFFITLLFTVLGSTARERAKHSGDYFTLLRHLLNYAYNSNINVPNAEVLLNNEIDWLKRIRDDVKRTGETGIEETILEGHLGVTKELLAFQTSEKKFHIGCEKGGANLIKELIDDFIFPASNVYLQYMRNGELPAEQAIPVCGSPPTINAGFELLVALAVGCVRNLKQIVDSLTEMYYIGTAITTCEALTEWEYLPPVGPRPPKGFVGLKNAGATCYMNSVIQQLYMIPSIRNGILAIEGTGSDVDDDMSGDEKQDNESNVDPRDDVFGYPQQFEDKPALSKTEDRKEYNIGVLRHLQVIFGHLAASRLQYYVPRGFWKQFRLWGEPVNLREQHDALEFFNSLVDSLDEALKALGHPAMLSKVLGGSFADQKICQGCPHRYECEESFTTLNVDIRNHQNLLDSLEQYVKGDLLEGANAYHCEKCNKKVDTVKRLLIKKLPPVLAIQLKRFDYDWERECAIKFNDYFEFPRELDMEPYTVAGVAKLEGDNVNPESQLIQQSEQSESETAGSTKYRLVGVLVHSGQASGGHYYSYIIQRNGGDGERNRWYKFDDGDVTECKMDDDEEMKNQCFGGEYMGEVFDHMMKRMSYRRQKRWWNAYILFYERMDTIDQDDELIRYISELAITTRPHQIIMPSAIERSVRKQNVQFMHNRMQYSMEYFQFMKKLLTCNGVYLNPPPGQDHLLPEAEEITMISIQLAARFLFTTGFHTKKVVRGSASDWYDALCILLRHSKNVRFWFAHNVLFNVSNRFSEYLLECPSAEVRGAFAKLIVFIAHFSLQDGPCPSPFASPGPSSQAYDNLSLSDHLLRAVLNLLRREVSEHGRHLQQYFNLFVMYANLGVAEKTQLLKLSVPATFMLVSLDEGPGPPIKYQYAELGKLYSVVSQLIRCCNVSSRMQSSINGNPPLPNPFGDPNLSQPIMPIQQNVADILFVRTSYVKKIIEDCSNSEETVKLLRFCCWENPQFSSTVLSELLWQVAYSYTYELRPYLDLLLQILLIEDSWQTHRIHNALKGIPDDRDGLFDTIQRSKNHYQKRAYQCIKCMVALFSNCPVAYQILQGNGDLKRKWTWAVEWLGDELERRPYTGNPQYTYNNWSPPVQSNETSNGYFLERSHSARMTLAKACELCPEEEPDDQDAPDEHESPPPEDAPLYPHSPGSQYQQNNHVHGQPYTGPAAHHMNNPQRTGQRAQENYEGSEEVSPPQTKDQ

SMILES: CCC[C@H](NC(=O)/C(C#N)=C/c1cccc(Br)n1)c1ccccc1
IC50 [1]: 2500 nM | solubility [2]: 2.3 µM (≈ 0.884 µg/mL)

SMILES: Cc1cc(C(=O)CN2CCCCC2)c(C)n1-c1ccc(F)cc1
IC50 [3]: 680 nM | IC50 [4]: 29100 nM

SMILES: Cc1ccc(S(=O)(=O)Nc2cc(C(F)(F)F)ccc2C(=O)Nc2nc(-c3ccccc3)cs2)cc1
IC50 [5]: 950 nM | IC50 [6]: 1100 nM | EC50 (HCT-116 [7]): 3600 nM

SMILES: CCCC(NC(=O)/C(C#N)=C/c1nc(Cl)ccc1Cl)c1ccc(OCCN2CCOCC2)cc1 (centres undefined)
IC50 [9]: 2500 nM

SMILES: CN(CCCNC(=O)c1ccc2nc3c(c(Cl)c2c1)CCCC3)Cc1ccccc1
IC50 (HCT-116 [11]): 2000 nM

SMILES: C=CC(=O)N1CC/C(=C\c2ccc(F)c([N+](=O)[O-])c2)C(=O)/C(=C/c2ccc(F)c([N+](=O)[O-])c2)C1
IC5 [15]: 10 µM | Kd [16]: 1500 nM | Kd [17]: 14000 nM

SMILES: O=C(NCCc1ccc(Cl)cc1)c1ccc2nc3c(c(Cl)c2c1)CCCC3
IC50 [18]: > 200000 nM | IC50 [19]: > 200000 nM | IC50 [20]: > 200000 nM | IC50 [21]: > 200000 nM | IC50 [22]: > 200000 nM | IC50 [23]: > 200000 nM

Further lines, results first:

IC50 (MM1.S): 33 nM | IC50 [8]: 69 nM
SMILES: O=C(C[C@@H](C(F)F)n1ccc(F)n1)N1CCC(O)(Cn2cnc3c(cnn3-c3ccc(F)cc3)c2=O)CC1

IC50 [10]: 1.5 nM
SMILES: NCc1ccc(-c2[nH]nc3c(=O)n(CC4(O)CCN(C(=O)C[C@H](c5ccccc5)C(F)(F)F)CC4)cnc23)cc1

Kd [12]: 7800 nM | IC50 [13]: 65 nM | Ratio [14]: 66 M⁻¹ s⁻¹
SMILES: C=CS(=O)(=O)Nc1ccccc1-c1ccc(C(=O)N2CCC(O)(Cn3cnc4c(cnn4-c4ccc(F)cc4)c3=O)CC2)cc1
